AC50 data for eight compounds are collected here from ChEMBL document CHEMBL5291721, “A preclinical secondary pharmacology resource illuminates target-adverse drug reaction associations of marketed drugs” (Nat Commun, 2023).

One experiment concerns the target T1, Adenosine receptor A1 (Homo sapiens, UniProt P30542).
T1 sequence (P30542 whole entry): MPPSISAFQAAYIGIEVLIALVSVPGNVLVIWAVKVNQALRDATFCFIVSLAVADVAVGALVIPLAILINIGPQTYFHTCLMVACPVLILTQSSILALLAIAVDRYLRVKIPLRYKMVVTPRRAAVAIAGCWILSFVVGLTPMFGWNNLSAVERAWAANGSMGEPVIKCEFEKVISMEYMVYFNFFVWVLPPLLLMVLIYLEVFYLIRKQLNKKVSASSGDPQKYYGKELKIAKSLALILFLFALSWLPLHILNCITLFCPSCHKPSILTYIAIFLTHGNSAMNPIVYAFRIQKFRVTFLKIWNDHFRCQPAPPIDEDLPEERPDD

Experiment [1] deals with 3',5'-cyclic-AMP phosphodiesterase 4D (Homo sapiens, UniProt Q08499). Format: functional.
3',5'-cyclic-AMP phosphodiesterase 4D, sequence (Q08499 whole entry): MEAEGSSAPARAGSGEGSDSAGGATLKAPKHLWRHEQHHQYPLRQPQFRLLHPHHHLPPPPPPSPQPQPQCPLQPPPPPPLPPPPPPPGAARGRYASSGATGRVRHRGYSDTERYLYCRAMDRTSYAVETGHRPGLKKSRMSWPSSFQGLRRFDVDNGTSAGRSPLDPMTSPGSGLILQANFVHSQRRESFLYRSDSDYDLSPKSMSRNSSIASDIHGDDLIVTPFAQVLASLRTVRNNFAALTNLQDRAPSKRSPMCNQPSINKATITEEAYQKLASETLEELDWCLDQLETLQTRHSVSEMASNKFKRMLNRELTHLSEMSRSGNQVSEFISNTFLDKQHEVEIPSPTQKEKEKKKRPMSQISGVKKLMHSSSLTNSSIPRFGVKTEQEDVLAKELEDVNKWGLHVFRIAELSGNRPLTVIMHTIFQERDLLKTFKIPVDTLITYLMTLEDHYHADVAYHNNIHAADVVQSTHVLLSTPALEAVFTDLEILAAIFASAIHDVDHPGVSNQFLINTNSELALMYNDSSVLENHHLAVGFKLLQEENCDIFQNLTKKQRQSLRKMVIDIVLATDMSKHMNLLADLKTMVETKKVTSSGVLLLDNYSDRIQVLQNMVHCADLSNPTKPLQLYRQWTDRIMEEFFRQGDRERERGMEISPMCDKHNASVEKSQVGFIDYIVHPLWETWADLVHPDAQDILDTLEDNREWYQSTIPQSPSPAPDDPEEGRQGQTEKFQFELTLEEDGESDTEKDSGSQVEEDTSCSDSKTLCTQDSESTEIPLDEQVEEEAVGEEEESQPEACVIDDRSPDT
Experiment [2] concerns the target cGMP-inhibited 3',5'-cyclic phosphodiesterase 3A (Homo sapiens, UniProt Q14432). Format: functional.
Another experiment has as its target T2, Estrogen receptor (Homo sapiens, UniProt P03372).
T2 sequence (P03372 whole entry): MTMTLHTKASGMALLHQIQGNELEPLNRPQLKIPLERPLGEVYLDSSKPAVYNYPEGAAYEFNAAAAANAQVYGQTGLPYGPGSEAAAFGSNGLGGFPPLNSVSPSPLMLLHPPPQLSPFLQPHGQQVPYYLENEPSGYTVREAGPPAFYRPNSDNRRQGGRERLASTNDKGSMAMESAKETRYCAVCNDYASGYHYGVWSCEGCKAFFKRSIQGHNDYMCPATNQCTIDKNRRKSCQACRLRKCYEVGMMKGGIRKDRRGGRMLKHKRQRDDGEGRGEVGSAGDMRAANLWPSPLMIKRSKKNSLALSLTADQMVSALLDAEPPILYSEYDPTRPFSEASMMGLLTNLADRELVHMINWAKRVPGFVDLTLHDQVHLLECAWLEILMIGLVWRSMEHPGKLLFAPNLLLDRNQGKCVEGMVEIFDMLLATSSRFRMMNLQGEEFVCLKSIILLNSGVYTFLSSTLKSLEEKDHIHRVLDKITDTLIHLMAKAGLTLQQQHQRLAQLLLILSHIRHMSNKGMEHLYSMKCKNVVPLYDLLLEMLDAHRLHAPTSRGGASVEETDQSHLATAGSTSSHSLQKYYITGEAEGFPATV

In experiment [3] the target is Delta-type opioid receptor (Homo sapiens, UniProt P41143).
Delta-type opioid receptor, sequence (P41143 whole entry): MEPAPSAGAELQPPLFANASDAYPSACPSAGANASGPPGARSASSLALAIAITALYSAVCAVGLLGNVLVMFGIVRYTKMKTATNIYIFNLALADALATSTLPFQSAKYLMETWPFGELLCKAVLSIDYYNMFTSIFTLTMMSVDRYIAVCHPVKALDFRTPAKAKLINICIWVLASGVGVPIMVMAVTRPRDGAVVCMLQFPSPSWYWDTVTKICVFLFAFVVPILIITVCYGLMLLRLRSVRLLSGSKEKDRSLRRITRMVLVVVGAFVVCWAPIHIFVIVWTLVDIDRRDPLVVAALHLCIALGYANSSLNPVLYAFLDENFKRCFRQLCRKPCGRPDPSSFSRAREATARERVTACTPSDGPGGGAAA
Another experiment has as its target D(1A) dopamine receptor (Homo sapiens, UniProt P21728). Format: functional, cell-based.
For experiment [4], the target named is T3, Neuropeptide Y receptor type 1 (Homo sapiens, UniProt P25929).
T3 sequence (P25929 whole entry): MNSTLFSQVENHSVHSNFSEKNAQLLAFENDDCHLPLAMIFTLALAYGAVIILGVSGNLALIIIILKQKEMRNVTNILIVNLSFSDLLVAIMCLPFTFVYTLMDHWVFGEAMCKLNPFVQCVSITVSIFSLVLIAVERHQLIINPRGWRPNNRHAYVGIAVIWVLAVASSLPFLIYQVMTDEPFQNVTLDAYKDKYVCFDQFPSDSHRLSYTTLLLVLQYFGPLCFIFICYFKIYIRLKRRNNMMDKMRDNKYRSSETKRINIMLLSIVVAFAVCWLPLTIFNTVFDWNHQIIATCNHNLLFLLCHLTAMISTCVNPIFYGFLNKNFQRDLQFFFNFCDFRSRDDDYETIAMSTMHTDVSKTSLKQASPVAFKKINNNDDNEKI

Experiment [5] concerns the target T4, Alpha-2B adrenergic receptor (Homo sapiens, UniProt P18089).
T4 sequence (P18089 whole entry): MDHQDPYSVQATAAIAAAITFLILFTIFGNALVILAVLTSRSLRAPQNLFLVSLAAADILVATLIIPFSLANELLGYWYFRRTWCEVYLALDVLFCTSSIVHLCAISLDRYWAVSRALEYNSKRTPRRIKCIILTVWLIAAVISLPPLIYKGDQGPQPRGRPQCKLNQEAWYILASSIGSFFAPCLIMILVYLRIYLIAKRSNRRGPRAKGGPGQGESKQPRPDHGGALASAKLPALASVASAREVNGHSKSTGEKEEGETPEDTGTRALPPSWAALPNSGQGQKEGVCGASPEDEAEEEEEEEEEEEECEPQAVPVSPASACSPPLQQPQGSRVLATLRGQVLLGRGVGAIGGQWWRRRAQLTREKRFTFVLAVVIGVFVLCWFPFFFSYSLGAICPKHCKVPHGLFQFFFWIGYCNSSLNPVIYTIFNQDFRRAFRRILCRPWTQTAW

A further experiment concerns the target Histamine H3 receptor (Homo sapiens, UniProt Q9Y5N1).
Experiment [6] has as its target T5, Alpha-2C adrenergic receptor (Homo sapiens, UniProt P18825).
T5 sequence (P18825 whole entry): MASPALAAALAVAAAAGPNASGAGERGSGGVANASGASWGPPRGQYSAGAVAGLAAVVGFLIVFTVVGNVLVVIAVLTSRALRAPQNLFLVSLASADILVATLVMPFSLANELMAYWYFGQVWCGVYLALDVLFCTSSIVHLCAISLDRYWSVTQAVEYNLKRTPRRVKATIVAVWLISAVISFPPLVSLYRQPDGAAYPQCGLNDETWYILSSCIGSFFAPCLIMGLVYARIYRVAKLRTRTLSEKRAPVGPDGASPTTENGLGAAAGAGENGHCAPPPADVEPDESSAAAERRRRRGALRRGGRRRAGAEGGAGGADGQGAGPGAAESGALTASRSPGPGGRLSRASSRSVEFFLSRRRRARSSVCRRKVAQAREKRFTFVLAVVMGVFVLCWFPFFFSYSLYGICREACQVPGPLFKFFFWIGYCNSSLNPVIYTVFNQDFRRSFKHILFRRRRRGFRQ
Format: functional.
Also: assay procedure not described here.

cGMP-inhibited 3',5'-cyclic phosphodiesterase 3A, sequence (Q14432 whole entry): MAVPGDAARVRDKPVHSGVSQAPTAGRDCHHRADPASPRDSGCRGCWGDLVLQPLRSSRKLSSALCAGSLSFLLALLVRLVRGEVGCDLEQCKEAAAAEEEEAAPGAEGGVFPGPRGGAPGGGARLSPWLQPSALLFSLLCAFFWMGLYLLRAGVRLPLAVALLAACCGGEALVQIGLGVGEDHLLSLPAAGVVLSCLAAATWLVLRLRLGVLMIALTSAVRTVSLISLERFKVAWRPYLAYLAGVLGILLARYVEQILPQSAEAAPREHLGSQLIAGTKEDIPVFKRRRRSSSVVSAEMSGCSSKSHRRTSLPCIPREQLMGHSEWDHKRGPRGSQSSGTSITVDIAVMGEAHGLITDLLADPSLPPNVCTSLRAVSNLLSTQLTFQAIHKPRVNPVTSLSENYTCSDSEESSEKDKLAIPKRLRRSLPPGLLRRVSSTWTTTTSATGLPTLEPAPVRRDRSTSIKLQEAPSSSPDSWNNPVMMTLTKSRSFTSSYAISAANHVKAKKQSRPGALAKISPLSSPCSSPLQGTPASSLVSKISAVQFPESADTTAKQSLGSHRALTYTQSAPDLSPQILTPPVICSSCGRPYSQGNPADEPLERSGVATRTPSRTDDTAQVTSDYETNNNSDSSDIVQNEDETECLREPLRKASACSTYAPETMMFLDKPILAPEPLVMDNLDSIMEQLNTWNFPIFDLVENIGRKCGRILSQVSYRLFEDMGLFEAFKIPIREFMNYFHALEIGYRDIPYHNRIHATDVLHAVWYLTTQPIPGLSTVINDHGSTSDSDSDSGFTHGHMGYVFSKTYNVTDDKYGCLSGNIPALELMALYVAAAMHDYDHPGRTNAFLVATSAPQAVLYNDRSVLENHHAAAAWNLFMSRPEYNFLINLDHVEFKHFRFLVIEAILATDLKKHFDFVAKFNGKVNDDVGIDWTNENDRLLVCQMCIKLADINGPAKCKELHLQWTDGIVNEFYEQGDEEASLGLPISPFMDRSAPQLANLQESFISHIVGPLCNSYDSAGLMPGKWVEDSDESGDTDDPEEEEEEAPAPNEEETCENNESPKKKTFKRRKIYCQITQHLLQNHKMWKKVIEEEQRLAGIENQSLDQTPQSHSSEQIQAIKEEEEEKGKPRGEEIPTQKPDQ
D(1A) dopamine receptor, sequence (P21728 whole entry): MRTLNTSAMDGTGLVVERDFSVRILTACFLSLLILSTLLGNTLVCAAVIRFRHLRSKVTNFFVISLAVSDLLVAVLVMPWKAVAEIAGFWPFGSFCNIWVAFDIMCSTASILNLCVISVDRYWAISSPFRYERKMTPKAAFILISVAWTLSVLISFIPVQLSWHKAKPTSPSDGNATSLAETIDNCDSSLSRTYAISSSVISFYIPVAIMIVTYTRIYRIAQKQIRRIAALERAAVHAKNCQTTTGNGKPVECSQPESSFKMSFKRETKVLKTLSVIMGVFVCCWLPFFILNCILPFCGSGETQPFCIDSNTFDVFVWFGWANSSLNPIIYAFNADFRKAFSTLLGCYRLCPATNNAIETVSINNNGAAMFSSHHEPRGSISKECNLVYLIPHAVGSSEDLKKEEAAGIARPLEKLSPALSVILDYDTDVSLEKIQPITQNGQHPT
Histamine H3 receptor, sequence (Q9Y5N1 whole entry): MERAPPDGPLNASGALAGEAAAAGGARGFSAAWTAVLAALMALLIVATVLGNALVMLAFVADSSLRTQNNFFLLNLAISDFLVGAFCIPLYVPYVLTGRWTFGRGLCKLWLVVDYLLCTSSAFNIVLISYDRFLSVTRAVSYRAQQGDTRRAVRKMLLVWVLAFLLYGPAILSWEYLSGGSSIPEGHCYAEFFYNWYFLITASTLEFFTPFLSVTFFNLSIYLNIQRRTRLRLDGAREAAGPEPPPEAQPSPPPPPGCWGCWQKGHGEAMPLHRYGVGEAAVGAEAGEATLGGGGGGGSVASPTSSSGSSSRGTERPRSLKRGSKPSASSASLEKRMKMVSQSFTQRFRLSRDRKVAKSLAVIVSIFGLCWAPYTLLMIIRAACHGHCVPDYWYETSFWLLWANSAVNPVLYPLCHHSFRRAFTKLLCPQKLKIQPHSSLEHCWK

The AC50 is the concentration at which the activity in the assay is half-maximal. Low values mean activity at low concentration, high ones activity only at high concentration. Regarding `CCCCCCCCOc1ccccc1C(=O)Nc1ccc(C(=O)OCC[N+](C)(CC)CC)cc1` [OTILONIUM BROMIDE], the AC50 on Adenosine receptor A1 was greater than 30 µM; in [1] it was 2.5 µM; in experiment [2] it was 20 µM; on Estrogen receptor, greater than 30 µM; in [3], 29 µM; on D(1A) dopamine receptor, greater than 30 µM. The concentration at half-maximal activity (AC50) came out at 10 µM in [4], 2.9 µM in experiment [5], 17 µM on Histamine H3 receptor and 8.2 µM in experiment [6].
Turning to `CC(Cc1ccccc1)NCCC(c1ccccc1)c1ccccc1` (stereo not given) [PRENYLAMINE], the AC50 (on Adenosine receptor A1; in [1]; in experiment [2]; at Estrogen receptor; in [3]; on D(1A) dopamine receptor) was greater than 30 µM throughout. Further, the concentration at half-maximal activity (AC50) is greater than 30 µM in experiment [4], 1.7 µM in experiment [5], greater than 10 µM on Histamine H3 receptor and 2.3 µM in experiment [6].
Turning to `C#CCN[C@@H]1CCc2ccccc21` [RASAGILINE], the AC50 (on Adenosine receptor A1; in [1]; in experiment [2]; on Estrogen receptor; in experiment [3]; on D(1A) dopamine receptor) was greater than 30 µM in each case. Also, the AC50 in experiment [4] was greater than 30 µM; in [5], 8.79 µM; at Histamine H3 receptor it was greater than 30 µM; in experiment [6] it was 21 µM.
As to `C1COC(NC(C2CC2)C2CC2)=N1` [RILMENIDINE], the half-maximal activity concentration (AC50) at Adenosine receptor A1 was greater than 30 µM; in experiment [1] it was greater than 30 µM; in experiment [2] it was greater than 30 µM; on Estrogen receptor, greater than 30 µM; in experiment [3] it was greater than 30 µM; on D(1A) dopamine receptor, greater than 10 µM. The concentration at half-maximal activity (AC50) in experiment [4] was greater than 30 µM; in experiment [5] it was 7.5 µM; on Histamine H3 receptor it was greater than 10 µM; in experiment [6], 6.8 µM.
Take `CC(=O)NS(=O)(=O)c1ccc(N)cc1` [SULFACETAMIDE]: the AC50 on Adenosine receptor A1 was greater than 10 µM; in experiment [1] it was greater than 30 µM; in experiment [2], greater than 30 µM; on Estrogen receptor it was greater than 10 µM; in experiment [3] it was greater than 30 µM; at D(1A) dopamine receptor, greater than 10 µM. In addition, the AC50 (in experiment [4]; in [5]; on Histamine H3 receptor; in [6]) was greater than 10 µM throughout.
On to `COc1ccc(C(=O)N2CCN(c3ccc4c(c3)CCC(=O)N4)CC2)cc1OC` [VESNARINONE], for which the half-maximal activity concentration (AC50) was greater than 30 µM at Adenosine receptor A1; greater than 30 µM in experiment [1]; 8.46 µM in experiment [2]; greater than 30 µM at Estrogen receptor; greater than 30 µM in [3]; greater than 30 µM at D(1A) dopamine receptor. In addition, the AC50 (in [4]; in [5]; on Histamine H3 receptor; in [6]) was greater than 30 µM throughout.
On to `Cc1ccc(-c2nc3ccc(C)cn3c2CC(=O)N(C)C)cc1` [ZOLPIDEM], for which the AC50 (on Adenosine receptor A1; in experiment [1]; in [2]; on Estrogen receptor; in experiment [3]; on D(1A) dopamine receptor) was greater than 30 µM in each case. Also, the half-maximal activity concentration (AC50) (in experiment [4]; in [5]; at Histamine H3 receptor; in [6]) was greater than 30 µM throughout.
Turning to TOCOFERSOLAN, the AC50 on Adenosine receptor A1 was greater than 30 µM; in experiment [1], greater than 10 µM; in experiment [2], greater than 10 µM; at Estrogen receptor, greater than 30 µM; in experiment [3], greater than 30 µM; on D(1A) dopamine receptor, greater than 30 µM. The AC50 (in experiment [4]; in experiment [5]; on Histamine H3 receptor; in experiment [6]) was greater than 30 µM throughout.
